Reference: PMC8329713, “The identification and structural analysis of potential 14-3-3 interaction sites on the bone regulator protein Schnurri-3” (Acta Crystallographica. Section F, Structural Biology …, 2021)
Each block holds one molecule with its values, some of them ahead of it. Non-standard residues stand in square brackets, D forms with d. No end group written: not given here. pS = N[C@@H](COP(=O)(O)O)C(=O)O

Columns and labels:
[1] = molecular target: T1, 14-3-3σ (Homo sapiens, UniProt P31947); assay: Isothermal titration calorimetry (ITC) under reducing conditions, 14-3-3σ; format: binding; settings: FITC-labelled peptide titrated into 14-3-3σ, 18 injections of 2 µl, 25°C, 50 mM Tris pH 7.5, 150 mM NaCl, 5 mM MgCl2, 2 mM 2-mercaptoethanol, 0.05%(v/v) Tween-20
T1 construct: The full-length 14-3-3 isoforms were used in biophysical assays; His6 (cleaved yes); made in house; host or cells: Escherichia coli NiCo21(DE3)
T1 sequence (P31947 1-248): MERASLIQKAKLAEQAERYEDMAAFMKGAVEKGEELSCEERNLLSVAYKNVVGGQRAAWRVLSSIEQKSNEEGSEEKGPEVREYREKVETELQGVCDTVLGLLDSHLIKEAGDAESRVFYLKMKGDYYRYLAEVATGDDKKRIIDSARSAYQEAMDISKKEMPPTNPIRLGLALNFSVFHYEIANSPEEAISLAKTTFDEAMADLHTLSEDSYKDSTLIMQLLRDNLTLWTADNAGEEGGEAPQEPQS
Experimental: (§1) 14-3-3 isoforms γ, τ, σ, ɛ, η, ζ, β (full length) and 14-3-3σΔC (residues 231–248 deleted) were expressed with a His6 tag in Escherichia coli NiCo21(DE3) competent cells from a pPRoeX-Htb vector in 2×TY medium. Purification was carried out by affinity chromatography on nickel columns (HisTrap HP, 5 ml). The tags were cleaved with TEV protease. The proteins were then loaded again onto nickel columns to remove any noncleaved protein. A final purification step was performed by loading the proteins onto a size-exclusion chromatography column (HiLoad 26/600 Superdex 75 pg) equilibrated in 20 mM Tris–HCl pH 7.5, 150 mM NaCl, 2 mM DTT. All purification steps were performed on an ÄKTApure protein-purification system (Cytiva). The full-length 14-3-3 isoforms were used in biophysical assays and the 14-3-3σΔC construct was used for crystallographic purposes. […]
(§2) Fluorescence polarization (FP) binding assays were carried out in Corning 384-well 3575 plates, serially diluting (twofold) the 14-3-3 isoforms in the presence of 10 nM FITC-labelled peptides. […] The data were collected on a PHERAstar FSX plate reader (BMG Labtech) with an excitation wavelength of 485 nm and an emisson wavelength of 520 nm. […] The data were analysed using the MicroCal PEAQ-ITC Analysis Software (Malvern).

[2] = tested on: 14-3-3 isoforms; assay: Fluorescence polarization (FP) binding assay, all 14-3-3 isoforms taken together; set-up: species or system human; settings: FITC-labelled peptide 10 nM, only a modest FP signal at the highest concentrations, not possible to calculate Kd values
Experimental: as §1, §2

[3] = molecular target: T1, 14-3-3σ; assay: X-ray protein crystallography with 14-3-3σΔC; settings: crystal structures with 14-3-3σΔC, PDB 7b13 (SHN3pS542) and 7b15 (SHN3pT869)
Experimental: 14-3-3 isoforms γ, τ, σ, ɛ, η, ζ, β (full length) and 14-3-3σΔC (residues 231–248 deleted) were expressed with a His6 tag in Escherichia coli NiCo21(DE3) competent cells from a pPRoeX-Htb vector in 2×TY medium. Purification was carried out by affinity chromatography on nickel columns (HisTrap HP, 5 ml). The tags were cleaved with TEV protease. The proteins were then loaded again onto nickel columns to remove any noncleaved protein. A final purification step was performed by loading the proteins onto a size-exclusion chromatography column (HiLoad 26/600 Superdex 75 pg) equilibrated in 20 mM Tris–HCl pH 7.5, 150 mM NaCl, 2 mM DTT. All purification steps were performed on an ÄKTApure protein-purification system (Cytiva). The full-length 14-3-3 isoforms were used in biophysical assays and the 14-3-3σΔC construct was used for crystallographic purposes.
The peptides SHN3pS542 (LLRSHpS542MPSAAC) and SHN3pT869 (PDRPDpT869EPEPPP) were ordered with a purity of >95% from GenScript in an N-terminally acetylated version and an N-terminally FITC-Ahx-labelled version.
For protein crystallization, a C-terminally truncated version of 14-3-3σ was used (14-3-3σΔC; deletion of the 17 C-terminal amino acids; Schumacher et al., 2010[▸]). […]

[4] = molecular target: T2, 14-3-3γ (full length) (human, UniProt P61981 1-247); assay: ITC; peptide titrated into the cell containing the 14-3-3 protein, 18 injections of 2 µl, 25°C; 50 mM Tris pH 7.5, 150 mM NaCl, 5 mM MgCl2, 2 mM 2-mercaptoethanol, 0.05% Tween-20 (reducing conditions); settings: both partners purified
T2 construct: 14-3-3 protein gamma, human, full length; Expressed from a pPRoeX-Htb vector; also called 14-3-3 isoform γ; source: E. coli NiCo21(DE3), purified (nickel column, TEV cleavage, second nickel column, SEC)
T2 sequence (looked up): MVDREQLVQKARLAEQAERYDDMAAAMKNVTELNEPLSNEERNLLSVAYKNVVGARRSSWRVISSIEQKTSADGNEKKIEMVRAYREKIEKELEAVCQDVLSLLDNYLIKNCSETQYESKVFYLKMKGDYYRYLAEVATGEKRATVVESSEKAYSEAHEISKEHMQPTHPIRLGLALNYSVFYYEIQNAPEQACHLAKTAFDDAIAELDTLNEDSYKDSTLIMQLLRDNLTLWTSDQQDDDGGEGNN

[5] = molecular target: T3, 14-3-3σ (full length) (human, UniProt P31947 1-248); assay: as above; settings: both partners purified
T3 construct: 14-3-3 protein sigma, human, full length; Expressed from a pPRoeX-Htb vector; also called 14-3-3 isoform σ; the σ isoform; source: E. coli NiCo21(DE3), purified (nickel column, TEV cleavage, second nickel column, SEC)
T3 sequence (looked up): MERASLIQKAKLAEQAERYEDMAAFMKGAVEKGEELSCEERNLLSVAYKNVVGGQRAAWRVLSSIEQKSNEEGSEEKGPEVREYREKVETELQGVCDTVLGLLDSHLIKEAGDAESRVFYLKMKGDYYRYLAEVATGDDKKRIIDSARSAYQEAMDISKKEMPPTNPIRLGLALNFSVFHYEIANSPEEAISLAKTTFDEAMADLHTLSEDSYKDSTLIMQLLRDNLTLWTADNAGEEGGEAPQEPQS

Kd [1]: 4.8 ± 0.8 µM
Molecule: LLRSHpS542MPSAAC [SHN3pS542-FITC, N-terminally FITC-Ahx-labelled version of SHN3pS542, as used in the FP assay]

binding to 14-3-3 isoforms (in words) [2]: very weak 14-3-3 binder
Molecule: PDRPDpT869EPEPPP [SHN3pT869, synthetic phosphopeptide PDRPDpT869EPEPPP derived from human Schnurri-3 (SHN3)]
polar contacts with 14-3-3σ residues [3]: Polar contacts are established between Glu872 and Glu870 of SHN3pT869 and Asn50, Lys122, Lys49 and Asn175 on the C-terminal side of the peptide and between Asp868 and Pro867 of SHN3pT869 and Asn226 on the N-terminal side of the peptide

Kd [4]: 690 ± 150 nM | Kd [5]: 5.8 ± 1.3 µM
B1: SHN3pS542 peptide, N-terminally acetylated (peptide)
peptide: Ac-LLRSH[pS]MPSAAC
modifications: also: phosphoserine at 542, position not mapped
notes: Schnurri-3 (SHN3, transcription factor HIVEP3), human, 12-mer around phosphorylated Ser542; also called the acetylated peptide; source: synthetic peptide, bought: GenScript (purity >95%)
